Measurements taken from US20150291565A1, “INDOLE COMPOUNDS AND THEIR USE AS ANTIMICROBIALS” (Memorial Sloan-Kettering Cancer Center, priority 2012, published 2015).
Values after ≈ are worked out from the molar mass of the structure shown. Where two headings read alike, the source gives them in different places.

Assays:
E. faecium CT-26 = assay: Broth dilution MIC, E. faecium CT-26; type: cell-based; conditions: Enterococcus faecium
MRSA = assay: Disk diffusion assay, zone of inhibition, MRSA; type: cell-based, Staphylococcus aureus; conditions: disk diffusion zone of inhibition
K. pneumoniae ATCC 13883 = assay: Broth dilution MIC, K. pneumoniae ATCC 13883; type: cell-based; conditions: Klebsiella pneumoniae
[1] = test system: S. pneumoniae ATCC 6301 (PSSP); assay: Broth dilution MIC, S. pneumoniae ATCC 6301; type: cell-based; conditions: Streptococcus pneumoniae
S. aureus BAA-39 (MDR) = assay: Broth dilution MIC, S. aureus BAA-39; type: cell-based; conditions: for MIC: Staphylococcus aureus, BAA39
P. aeruginosa ATCC 9027 = assay: Broth dilution MIC, P. aeruginosa ATCC 9027; type: cell-based; conditions: Pseudomonas aeruginosa
C. albicans ATCC 14053 = assay: Broth dilution MIC, C. albicans ATCC 14053; type: cell-based; conditions: Candida albicans, ATCC14053; Table 1; range 64 down to 0.12 μg/ml
Method: In vitro Anti-bacterial & Anti-fungal Activity Assay: All test compounds were prepared as 6.4 mg/ml stock solutions in DMSO and further diluted according to the NCCLS M7-A6 (Page 5) document with sterile water or appropriate diluent. A working stock of 256 μg/ml was used to do 1:2 serial dilutions in 96-well plates. […] The inoculums were prepared by making a direct sterile water suspension of isolated colonies from 18 to 24 hr agar plates for all organisms (Mueller Hinton, Blood Agar or SDA plates). Each bacterial suspension was adjusted to read between 0.09 and 0.11 absorbance at 620 nm. […] These were further diluted 1/100 in appropriate broth for inoculating the 96-well plates. The C. albicans suspension was adjusted to read between 70 and 75% Transmittance at 530 nm and then diluted 1/500 in RPMI+MOPS broth. All aerobic bacterial and fungal plates were incubated for 18 hrs. at 35° C. […] Plates were read using a Beckman Automated Plate Reader at 650 nm. Readings were confirmed by visual examination of plates. (See Table 1, Table 2, Table 3, and Table 4). […] It is important to note that positive results against C. albicans are often indicative of broad spectrum antifungal activity, while negative results are not necessarily conclusory of a lack of activity against other fungus.

[2] = test system: S. aureus ATCC 29213 (MSSA); assay: Broth dilution MIC, S. aureus ATCC 29213; type: cell-based; conditions: Staphylococcus aureus
[3] = test system: S. pneumoniae ATCC 700674 (PRSP); assay: Broth dilution MIC, S. pneumoniae ATCC 700674; type: cell-based; conditions: Streptococcus pneumoniae
E. coli ECM 1694 = assay: Broth dilution MIC, E. coli ECM 1694; type: cell-based; conditions: Escherichia coli
M. smegmatis (mc2155) = assay: Disk diffusion assay, zone of inhibition, M. smegmatis; type: cell-based; conditions: disk diffusion zone of inhibition
E. coli ATCC 25922 = assay: Broth dilution MIC, E. coli ATCC 25922; type: cell-based; conditions: Escherichia coli
[4] = test system: S. aureus ATCC 33591 (MRSA); assay: Broth dilution MIC, S. aureus ATCC 33591; type: cell-based; conditions: for MIC: Staphylococcus aureus
[5] = test system: E. faecalis ATCC 29212 (VRE); assay: Broth dilution MIC, E. faecalis ATCC 29212; type: cell-based
K. pneumoniae ATCC 51503 = assay: Broth dilution MIC, K. pneumoniae ATCC 51503; type: cell-based; conditions: Klebsiella pneumoniae
[6] = test system: E. faecium ATCC 700221 (VRE); assay: Broth dilution MIC, E. faecium ATCC 700221; type: cell-based
E. coli (ATCC 25922) = assay: Septicemia survival model in neutropenic CD1 mice, E. coli; type: in vivo; conditions: 10 mg/kg BID SC
[7] = CT26, Table 1, range 64 down to 0.12 μg/ml, read-out: MIC E. faecium CT-26
[8] = CT26, Table 2, broth dilution MIC in ug/ml, read-out: MIC E faecium CT-25
[9] = ATCC13883, Table 1, range 64 down to 0.12 μg/ml, read-out: MIC K. pneumoniae ATCC 13883
[10] = ATCC13883, Table 2, broth dilution MIC in ug/ml, read-out: MIC K pneumonia ATCC 13883
[11] = ATCC6301, Table 1, range 64 down to 0.12 μg/ml, read-out: MIC S. pneumoniae ATCC 6301
[12] = ATCC6301, Table 2, broth dilution MIC in ug/ml, read-out: MIC S pneumonia ATCC 6301 PSSP
[13] = Table 1, range 64 down to 0.12 μg/ml, read-out: MIC S. aureus BAA-39
[14] = Table 2, broth dilution MIC in ug/ml, read-out: MIC S aureus BAA-39 MDR
[15] = ATCC 9026 / ATCC 9027, Table 2, broth dilution MIC in ug/ml, read-out: MIC P aeruginosa ATCC 9026
[16] = ATCC9027, Table 1, range 64 down to 0.12 μg/ml, read-out: MIC P. aeruginosa ATCC 9027
[17] = Table 1, range 64 down to 0.12 μg/ml, read-out: MIC S. aureus ATCC 29213
[18] = Table 2, broth dilution MIC in ug/ml, read-out: MIC S aureus ATCC 29213 MSSA
[19] = Table 1, range 64 down to 0.12 μg/ml, read-out: MIC S. pneumoniae ATCC 700674
[20] = Table 2, broth dilution MIC in ug/ml, read-out: MIC S pneumonia ATCC 700674 PRSP
[21] = ECM1694, Table 1, range 64 down to 0.12 μg/ml, read-out: MIC E. coli ECM 1694
[22] = ECM1694, Table 2, broth dilution MIC in ug/ml, read-out: MIC E. coli ECM 1693
[23] = ATCC 25921 / ATCC 25922, Table 2, broth dilution MIC in ug/ml, read-out: MIC E. coli ATCC 25921
[24] = ATCC25922, Table 1, range 64 down to 0.12 μg/ml, read-out: MIC E. coli ATCC 25922
[25] = Table 1, range 64 down to 0.12 μg/ml, read-out: MIC S. aureus ATCC 33591
[26] = Table 2, broth dilution MIC in ug/ml, read-out: MIC S aureus ATCC 33591 MRSA
[27] = Enterococcus faecalis, Table 1, range 64 down to 0.12 μg/ml, read-out: MIC E. faecalis ATCC 29212
[28] = Table 2, broth dilution MIC in ug/ml, read-out: MIC E faecalis ATCC 29212 VRE
[29] = ATCC51503, Table 1, range 64 down to 0.12 μg/ml, read-out: MIC K. pneumoniae ATCC 51503
[30] = ATCC51503, Table 2, broth dilution MIC in ug/ml, read-out: MIC K pneumonia ATCC 51503
[31] = Enterococcus faecium, Table 1, range 64 down to 0.12 μg/ml, read-out: MIC E. faecium ATCC 700221
[32] = Table 2, broth dilution MIC in ug/ml, read-out: MIC E faecium ATCC 700221 VRE

c1ccc(Nc2ccc(-c3cc4ccc(C5=NCCN5)cc4[nH]3)cc2)cc1 [SKI-2]
MIC (E. faecium CT-26; [7]): 2 µg/mL (≈ 5.67 µM) | MIC (E. faecium CT-26; [8]): 2 µg/mL (≈ 5.67 µM) | Zone Size MRSA (MRSA): 10 mm | MIC (K. pneumoniae ATCC 13883; [9]): 32 µg/mL (≈ 90.8 µM) | MIC (K. pneumoniae ATCC 13883; [10]): 32 µg/mL (≈ 90.8 µM) | MIC [1, 11]: 2 µg/mL (≈ 5.67 µM) | MIC [1, 12]: 2 µg/mL (≈ 5.67 µM) | MIC (S. aureus BAA-39 (MDR); [13]): 4 µg/mL (≈ 11.3 µM) | MIC (S. aureus BAA-39 (MDR); [14]): 4 µg/mL (≈ 11.3 µM) | MIC (P. aeruginosa ATCC 9027; [15]): 64 µg/mL (≈ 182 µM) | MIC (P. aeruginosa ATCC 9027; [16]): 64 µg/mL (≈ 182 µM) | MIC (C. albicans ATCC 14053): 16 µg/mL (≈ 45.4 µM) | MIC [2, 17]: 8 µg/mL (≈ 22.7 µM) | MIC [2, 18]: 8 µg/mL (≈ 22.7 µM) | MIC [3, 19]: 4 µg/mL (≈ 11.3 µM) | MIC [3, 20]: 4 µg/mL (≈ 11.3 µM) | MIC (E. coli ECM 1694; [21]): 2 µg/mL (≈ 5.67 µM) | MIC (E. coli ECM 1694; [22]): 2 µg/mL (≈ 5.67 µM) | Zone Size M. smegmatis (M. smegmatis (mc2155)): 14.3 mm | MIC (E. coli ATCC 25922; [23]): 16 µg/mL (≈ 45.4 µM) | MIC (E. coli ATCC 25922; [24]): 16 µg/mL (≈ 45.4 µM) | MIC [4, 25]: 4 µg/mL (≈ 11.3 µM) | MIC [4, 26]: 4 µg/mL (≈ 11.3 µM) | MIC [5, 27]: 2 µg/mL (≈ 5.67 µM) | MIC [5, 28]: 2 µg/mL (≈ 5.67 µM) | MIC (K. pneumoniae ATCC 51503; [29]): 64 µg/mL (≈ 182 µM) | MIC (K. pneumoniae ATCC 51503; [30]): 64 µg/mL (≈ 182 µM) | MIC [6, 31]: 2 µg/mL (≈ 5.67 µM) | MIC [6, 32]: 2 µg/mL (≈ 5.67 µM)

c1cncc(Nc2ccc(-c3cc4ccc(C5=NCCN5)cc4[nH]3)cc2)c1 [SKI-4]
MIC (E. faecium CT-26; [7]): 0.25 µg/mL (≈ 0.707 µM) | MIC (E. faecium CT-26; [8]): 0.25 µg/mL (≈ 0.707 µM) | MIC (E. faecium CT-26; CT26, Table 3, starting at 4 μg/ml, read-out: MIC E. faecium CT-26): 0.25 µg/mL (≈ 0.707 µM) | Zone Size MRSA (MRSA): 14 mm | MIC (K. pneumoniae ATCC 13883; [9]): > 64 µg/mL | MIC (K. pneumoniae ATCC 13883; [10]): 64 µg/mL (≈ 181 µM) | MIC [1, 11]: ≤ 0.12 µg/mL | MIC [1, 12]: 0.06 µg/mL (≈ 0.17 µM) | MIC ([1]; ATCC6301, Table 3, starting at 4 μg/ml, read-out: MIC S. pneumoniae ATCC 6301): 0.06 µg/mL (≈ 0.17 µM) | MIC (S. aureus BAA-39 (MDR); [13]): 1 µg/mL (≈ 2.83 µM) | MIC (S. aureus BAA-39 (MDR); [14]): 1 µg/mL (≈ 2.83 µM) | MIC S. aureus BAA-39 (S. aureus BAA-39 (MDR); Table 3, starting at 4 μg/ml): 1 µg/mL (≈ 2.83 µM) | MIC (P. aeruginosa ATCC 9027; [15]): 64 µg/mL (≈ 181 µM) | MIC (P. aeruginosa ATCC 9027; [16]): > 64 µg/mL | MIC (C. albicans ATCC 14053): > 64 µg/mL | MIC ([2]; Table 3, starting at 4 μg/ml, read-out: MIC S. aureus ATCC 29213): 1 µg/mL (≈ 2.83 µM) | MIC [2, 17]: 2 µg/mL (≈ 5.66 µM) | MIC [2, 18]: 1 µg/mL (≈ 2.83 µM) | MIC [3, 19]: 0.5 µg/mL (≈ 1.41 µM) | MIC [3, 20]: 0.5 µg/mL (≈ 1.41 µM) | MIC ([3]; Table 3, starting at 4 μg/ml, read-out: MIC S. pneumoniae ATCC 700674): 0.5 µg/mL (≈ 1.41 µM) | MIC (E. coli ECM 1694; [21]): ≤ 0.12 µg/mL | MIC (E. coli ECM 1694; [22]): 0.12 µg/mL (≈ 0.34 µM) | MIC (E. coli ECM 1694; ECM1694, Table 3, starting at 4 μg/ml, read-out: MIC E. coli ECM 1694): 0.12 µg/mL (≈ 0.34 µM) | Zone Size M. smegmatis (M. smegmatis (mc2155)): 27.6 mm | MIC (E. coli ATCC 25922; [23]): 1 µg/mL (≈ 2.83 µM) | MIC (E. coli ATCC 25922; [24]): 1 µg/mL (≈ 2.83 µM) | MIC [4, 25]: 1 µg/mL (≈ 2.83 µM) | MIC [4, 26]: 1 µg/mL (≈ 2.83 µM) | MIC S. aureus ATCC 33591 ([4]; Table 3, starting at 4 μg/ml): 1 µg/mL (≈ 2.83 µM) | MIC [5, 27]: 0.5 µg/mL (≈ 1.41 µM) | MIC [5, 28]: 0.5 µg/mL (≈ 1.41 µM) | MIC E. faecalis ATCC 29212 ([5]; Table 3, starting at 4 μg/ml): 0.5 µg/mL (≈ 1.41 µM) | MIC (K. pneumoniae ATCC 51503; [29]): > 64 µg/mL | MIC (K. pneumoniae ATCC 51503; [30]): 64 µg/mL (≈ 181 µM) | MIC [6, 31]: 0.25 µg/mL (≈ 0.707 µM) | MIC ([6]; Enterococcus faecium, Table 3, starting at 4 μg/ml, read-out: MIC E. faecium ATCC 700221): 0.25 µg/mL (≈ 0.707 µM) | MIC [6, 32]: 0.25 µg/mL (≈ 0.707 µM)

Gentamicin [reference compound]
Percent Survival Day 1 (E. coli (ATCC 25922)): 100% | Percent Survival Day 2 (E. coli (ATCC 25922)): 100% | Percent Survival Day 3 (E. coli (ATCC 25922)): 80% | Percent Survival Day 4 (E. coli (ATCC 25922)): 60% | Percent Survival Day 5 (E. coli (ATCC 25922)): 60% | Percent Survival Day 6 (E. coli (ATCC 25922)): 60% | Percent Survival Day 7 (E. coli (ATCC 25922)): 60%
